According to PMC8704709, “Improved Anticancer Activities of a New Pentafluorothio-Substituted Vorinostat-Type Histone Deacetylase Inhibitor” (Pharmaceuticals, 2021):

What was measured:
[1] = system: DU145 prostate tumor cells; experiment: Scratch assay (migration); type: cell-based, human; details: 5 µM and 10 µM, 24 h
Method: To investigate the anti-migratory effects of SF5-SAHA scratch assays were performed as described. In brief, cells were grown to sub-confluency in 6-well plates. The cell monolayer was then scratched using a pipet tip. Cells at the edge of this artificial gap migrate into the cell-free area to close the gap in a time-dependent manner. DU145 cells were seeded at a density 1.5 × 10^5 cells/well and treated with SF5-SAHA (0–10 µM) for 24 h and bright-field images were taken before and after 12 h and 24 h of treatment using a an EVOS M5000 microscope (Thermo Fischer Scientific, Waltham MA, USA). The experiments were performed n = 3.

[2] = system: Human HDAC enzymes derived from HeLa cell nuclear extracts (pan-HDAC); experiment: Fluorogenic pan-HDAC activity assay; type: biochemical; details: cell free, 1–10 µM tested
SupT11 cells = experiment: IC50 by Annexin-V/7AAD dual staining, flow cytometry; type: cell-based; details: Homo sapiens, as determined after 48 h, means ± SEM, n ≥ 3, read-out: Growth inhibitory activity IC50, SupT11
Method: (§1) Stock solutions (10 mM) prepared by dissolution in DMSO were stored at −20 °C. Working solutions were always freshly prepared before each experiment by dilution of stock solution with medium. The final DMSO concentration never exceeded 0.25%. Treatment-induced changes in cell number were determined by crystal violet (N-hexamethylpararosaniline from Sigma Aldrich) staining. 1000 cells/well (DU145) or 1500 cells/well (Hep-G2) were seeded in 96-well plates and maintained for adherence in an incubator (37 °C, 5% CO2, humidified atmosphere) for 48 h prior to the beginning of the treatment. […] Thereafter, the cells were fixed with 1% glutaraldehyde and stained with 0.1% crystal violet. The unbound dye was removed by rinsing with water. Bound crystal violet was solubilized with 0.2% Triton X-100 (Sigma-Aldrich). Light extinction of crystal violet, which increases linearly with the cell number, was analyzed at 570 nm using an ELISA-Reader (Dynex Technologies, Denkendorf, Germany). For T-cell leukemia/lymphoma cell lines apoptosis was determined using dual staining for Annexin-V and 7AAD via flow cytometry.

SMZ1 cells = experiment: as above; type: cell-based; details: Homo sapiens, as determined after 48 h, means ± SEM, n ≥ 3, read-out: Growth inhibitory activity IC50, SMZ1
Method: as §1

DU145 cells = experiment: Western blot in DU145 cells (acetyl-H3, PARP, EGFR, P-mTOR); type: cell-based, human
Method: (§2) Western blots were performed as described earlier. Cells were seeded in 100 mm petri dishes, grown to almost confluency, treated for 24 h, washed and frozen, followed by lysis with RIPA Buffer, added with one cOmplete™ Mini protease Inhibitor tablet/10 mL (Roche), and quantification with Pierce^TM BCA Protein Assay Kit (Thermo Fisher Scientific). Thereafter protein levels were normalized to untreated controls so equal protein loading of 20 µg/lane. Laemmli Buffer and β-mercaptoethanol were added before probes were desaturated at 96 °C for 10 min. First, 7.5% or 12% SDS gels (Biorad, Munich, Germany) were loaded with proteins and electrophoresis was done. Thereafter, proteins were transferred to activated polyvinylidene difluoride membranes (PVDF) by electroblotting. Finally, the membranes were blocked with 1% BSA and incubated with primary antibodies over night at 4 °C.
Blots were washed three times with 1% TBS-Tween and incubated with anti-mouse or anti-rabbit peroxidase-coupled anti-IgG secondary antibodies (1:5000–1:10,000) at room temperature for 60 min. Subsequently, antibody bondage was illustrated using Clarity and Clarity Max ECL Western Blotting Substrates (Biorad, Munich, Germany) for detection and Celvin-S developer (Biostep, software SnapAndGo Vs 1.8.1) for development. […] Values were normalized to β-actin expression, which served as a loading control and compared to untreated control expressions which was set at 1. The mean ± SEM of the relative values to control are illustrated with Graph Pad Prism 8.

[3] = system: T-cell leukemia/lymphoma cells (Jurkat, Hut78, SMZ1, SupT11); experiment: Western blot in T-cell leukemia/lymphoma cells (acetyl-H3, acetyl-α-tubulin); type: cell-based, human; details: 24 h
Method: as §2, with “°C. […] Only the Jurkat cells had already a high level of α-tubulin in untreated cells and, thus, drug-induced changes were not detectable in these cells.” for “°C.”
Blots were washed three times with 1% TBS-Tween and incubated with anti-mouse or anti-rabbit peroxidase-coupled anti-IgG secondary antibodies (1:5000–1:10,000) at room temperature for 60 min. […]

Compound: O=C(CCCCCCC(=O)Nc1ccc(S(F)(F)(F)(F)F)cc1)NO [SF5-SAHA]
- migratory activity (scratch assay) [1]: reduced migratory activity
- pan-HDAC inhibition IC50 (in words) [2]: submicromolar range
- IC50 (SupT11 cells): 3.08 ± 0.33 µM
- IC50 (SMZ1 cells): 1.58 ± 0.29 µM
- phosphorylated mTOR (P-mTOR) level (DU145 cells): reduced the level of phosphorylated (activated) mTOR
- EGFR protein expression (DU145 cells; 24 h): significant downregulation of EGFR protein expression
- PARP cleavage (DU145 cells; 24 h): detection of PARP cleavage in treated DU145 cells
- acetylated histone H3 level (DU145 cells; 24 h): dose-dependent rise of H3 acetylation
- acetyl-α-tubulin level [3]: increased in a dose-dependent way in three out of four tested cell lines
- acetylated histone H3 level [3]: Dose-dependent increases in acetylated H3 were observed in all tested leukemia/lymphoma cancer cell lines
